According to PMC5218480 (PLoS ONE, 2017):

Tested on: MV-4-11 cells
Test: Gene expression microarray analysis (Affymetrix PrimeView) and GSEA
Assay type: cell-based, human
Design: RFU PODN (11730768_x_at) / Fold change /veh PODN (11730768_x_at) / RFU LINC00158 (11744669_a_at) / Fold change /veh LINC00158 (11744669_a_at) / RFU DUSP10 (11751237_a_at) / Fold change /veh DUSP10 (11751237_a_at) / RFU ID3 (11757404_x_at) / Fold change /veh ID3 (11757404_x_at) / RFU PLEKHG5 (11737974_s_at) / Fold change /veh PLEKHG5 (11737974_s_at) / RFU LRRC4B (11730491_at) / Fold change /veh LRRC4B (11730491_at) / RFU GIMAP4 (11747438_a_at) / Fold change /veh GIMAP4 (11747438_a_at) / RFU KRT8 (11758183_x_at) / Fold change /veh KRT8 (11758183_x_at) / RFU CNN1 (11734310_a_at) / Fold change /veh CNN1 (11734310_a_at) / RFU VPS37D (11726825_at) / Fold change /veh VPS37D (11726825_at) / RFU C10orf10 (11716522_x_at) / Fold change /veh C10orf10 (11716522_x_at) / RFU KIR2DL2 /// KIR2DL4 /// KIR2DL5A /// KIR2DL5B /// KIR2DS1 /// KIR2DS2 /// KIR2DS3 /// KIR2DS4 /// KIR3DL3 /// KIR3DL3 /// KIR3DS1 (11738374_at) / Fold change /veh KIR2DL2 /// KIR2DL4 /// KIR2DL5A /// KIR2DL5B /// KIR2DS1 /// KIR2DS2 /// KIR2DS3 /// KIR2DS4 /// KIR3DL3 /// KIR3DL3 /// KIR3DS1 (11738374_at) / RFU C1QL1 (11718748_at) / Fold change /veh C1QL1 (11718748_at) / RFU TMPRSS4 (11747572_a_at) / Fold change /veh TMPRSS4 (11747572_a_at) / RFU HAMP (11756126_x_at) / Fold change /veh HAMP (11756126_x_at) / RFU RNFT2 (11725882_a_at) / Fold change /veh RNFT2 (11725882_a_at) / RFU NR4A2 (11747474_a_at) / Fold change /veh NR4A2 (11747474_a_at) / RFU ABCC12 (11746883_a_at) / Fold change /veh ABCC12 (11746883_a_at) / RFU TMEM136 (11760407_x_at) / Fold change /veh TMEM136 (11760407_x_at) / RFU CLDN22 /// WWC2 (11732394_at) / Fold change /veh CLDN22 /// WWC2 (11732394_at) / RFU HLA-DPB1 (11760878_x_at) / Fold change /veh HLA-DPB1 (11760878_x_at) / RFU SPINT1 (11716480_a_at) / Fold change /veh SPINT1 (11716480_a_at) / RFU GAP43 (11754022_s_at) / Fold change /veh GAP43 (11754022_s_at) / RFU A4GNT (11735810_at) / Fold change /veh A4GNT (11735810_at) / RFU PRB3 (11715151_x_at) / Fold change /veh PRB3 (11715151_x_at) / RFU TUBB4B (11761932_at) / Fold change /veh TUBB4B (11761932_at) / RFU CAPN14 (11732068_a_at) / Fold change /veh CAPN14 (11732068_a_at) / RFU TMCC2 (11721928_a_at) / Fold change /veh TMCC2 (11721928_a_at) / RFU IRGQ (11745062_a_at) / Fold change /veh IRGQ (11745062_a_at) / RFU FAM174B (11720279_a_at) / Fold change /veh FAM174B (11720279_a_at) / RFU TMPRSS4 (11748680_a_at) / Fold change /veh TMPRSS4 (11748680_a_at) / RFU FAM212B (11763350_a_at) / Fold change /veh FAM212B (11763350_a_at) / RFU PLEKHG5 (11743358_a_at) / Fold change /veh PLEKHG5 (11743358_a_at) / RFU ZSCAN30 (11745921_a_at) / Fold change /veh ZSCAN30 (11745921_a_at) / RFU CMKLR1 (11741424_a_at) / Fold change /veh CMKLR1 (11741424_a_at) / RFU LOC101060620 /// MAPK8IP1 (11723275_at) / Fold change /veh LOC101060620 /// MAPK8IP1 (11723275_at) / RFU SPTSSB (11747773_x_at) / Fold change /veh SPTSSB (11747773_x_at) / RFU PRSS12 (11739890_at) / Fold change /veh PRSS12 (11739890_at) / RFU BIN1 (11741810_x_at) / Fold change /veh BIN1 (11741810_x_at) / RFU WNT11 (11732464_a_at) / Fold change /veh WNT11 (11732464_a_at) / RFU C10orf10 (11716521_a_at) / Fold change /veh C10orf10 (11716521_a_at) / RFU C5orf56 (11738089_at) / Fold change /veh C5orf56 (11738089_at) / RFU CYB561 (11721691_x_at) / Fold change /veh CYB561 (11721691_x_at) / RFU ANKRD19P (11752326_a_at) / Fold change /veh ANKRD19P (11752326_a_at) / RFU OR2T12 /// OR2T33 /// OR2T8 (11738714_s_at) / Fold change /veh OR2T12 /// OR2T33 /// OR2T8 (11738714_s_at) / RFU VCAN (11748164_a_at) / Fold change /veh VCAN (11748164_a_at) / RFU JSRP1 (11732532_at) / Fold change /veh JSRP1 (11732532_at) / RFU KRTAP10-11 (11738290_x_at) / Fold change /veh KRTAP10-11 (11738290_x_at) / RFU MYO3A (11730013_a_at) / Fold change /veh MYO3A (11730013_a_at) / RFU EBF3 (11725865_a_at) / Fold change /veh EBF3 (11725865_a_at) / RFU CAMK2N1 (11719241_x_at) / Fold change /veh CAMK2N1 (11719241_x_at) / RFU C5orf56 (11738088_a_at) / Fold change /veh C5orf56 (11738088_a_at) / RFU OLFML3 (11715873_a_at) / Fold change /veh OLFML3 (11715873_a_at) / RFU LOC100653217 /// NTM (11731650_a_at) / Fold change /veh LOC100653217 /// NTM (11731650_a_at) / RFU MAPK11 (11762145_a_at) / Fold change /veh MAPK11 (11762145_a_at) / RFU FIZ1 (11724087_x_at) / Fold change /veh FIZ1 (11724087_x_at) / RFU OASL (11726364_x_at) / Fold change /veh OASL (11726364_x_at) / RFU SOX15 (11748057_x_at) / Fold change /veh SOX15 (11748057_x_at) / RFU CD79A (11719716_a_at) / Fold change /veh CD79A (11719716_a_at) / RFU HIST1H1D (11736915_at) / Fold change /veh HIST1H1D (11736915_at) / RFU CASKIN2 (11723855_a_at) / Fold change /veh CASKIN2 (11723855_a_at) / RFU LOC730098 (11760151_x_at) / Fold change /veh LOC730098 (11760151_x_at) / RFU OR4N2 (11742367_at) / Fold change /veh OR4N2 (11742367_at) / RFU PRRT2 (11749266_a_at) / Fold change /veh PRRT2 (11749266_a_at) / RFU SNX32 (11753110_a_at) / Fold change /veh SNX32 (11753110_a_at) / RFU CDHR5 (11726645_a_at) / Fold change /veh CDHR5 (11726645_a_at) / RFU RCAN1 (11760418_a_at) / Fold change /veh RCAN1 (11760418_a_at) / RFU FAM167A (11723789_a_at) / Fold change /veh FAM167A (11723789_a_at) / RFU FAM26E (11764081_at) / Fold change /veh FAM26E (11764081_at) / RFU ISYNA1 (11749810_s_at) / Fold change /veh ISYNA1 (11749810_s_at) / RFU ACY1 (11761880_at) / Fold change /veh ACY1 (11761880_at) / RFU 11764098_at / Fold change /veh 11764098_at / RFU SAMD14 (11745864_x_at) / Fold change /veh SAMD14 (11745864_x_at) / RFU NPB (11741838_a_at) / Fold change /veh NPB (11741838_a_at) / RFU TMPRSS6 (11731388_a_at) / Fold change /veh TMPRSS6 (11731388_a_at) / RFU KRTAP10-2 (11738614_at) / Fold change /veh KRTAP10-2 (11738614_at) / RFU ARHGAP8 /// PRR5-ARHGAP8 (11727945_x_at) / Fold change /veh ARHGAP8 /// PRR5-ARHGAP8 (11727945_x_at) / RFU KRTAP5-7 /// NADSYN1 (11734609_at) / Fold change /veh KRTAP5-7 /// NADSYN1 (11734609_at) / RFU RASL12 (11751679_a_at) / Fold change /veh RASL12 (11751679_a_at) / RFU CDKN2B (11736163_a_at) / Fold change /veh CDKN2B (11736163_a_at) / RFU PRF1 (11729649_at) / Fold change /veh PRF1 (11729649_at) / RFU, ZNF638 /// ZNF638-IT1 / Fold change vs veh, ZNF638 /// ZNF638-IT1 / RFU, PANK3 / Fold change vs veh, PANK3 / RFU, SH3YL1 / Fold change vs veh, SH3YL1 / RFU, ZEB2 / Fold change vs veh, ZEB2 / RFU, NRIP1 / Fold change vs veh, NRIP1 / RFU, PTTG1IP / Fold change vs veh, PTTG1IP / RFU, CAPN2 / Fold change vs veh, CAPN2 / RFU, MED14 / Fold change vs veh, MED14 / RFU, SNORA58 / Fold change vs veh, SNORA58 / RFU, C1orf63 / Fold change vs veh, C1orf63 / RFU, LRRFIP1 / Fold change vs veh, LRRFIP1 / RFU, NDUFAF7 / Fold change vs veh, NDUFAF7 / RFU, SLC12A2 / Fold change vs veh, SLC12A2 / RFU, IBTK / Fold change vs veh, IBTK / RFU, ESF1 / Fold change vs veh, ESF1 / Fold change vs veh, TMEM50B / RFU, TAOK1 / Fold change vs veh, TAOK1 / RFU, ACBD3 / Fold change vs veh, ACBD3 / RFU, TMA16 / Fold change vs veh, TMA16 / RFU, RWDD3 / Fold change vs veh, RWDD3 / RFU, BCAT1 / Fold change vs veh, BCAT1 / RFU, EDEM3 / Fold change vs veh, EDEM3 / RFU, TMEM33 / Fold change vs veh, TMEM33 / RFU, WDR75 / Fold change vs veh, WDR75 / RFU, AHCTF1 / Fold change vs veh, AHCTF1 / RFU, TFRC / Fold change vs veh, TFRC / RFU, ZDHHC17 / Fold change vs veh, ZDHHC17 / RFU, NOM1 / Fold change vs veh, NOM1 / RFU, ARL8B / Fold change vs veh, ARL8B / RFU, ZBTB11 / Fold change vs veh, ZBTB11 / RFU, TAMM41 / Fold change vs veh, TAMM41 / RFU, KIAA1704 /// LOC100996395 / Fold change vs veh, KIAA1704 /// LOC100996395 / RFU, ING1 / Fold change vs veh, ING1 / RFU, TRMT61B / Fold change vs veh, TRMT61B / RFU, FUBP3 / Fold change vs veh, FUBP3 / RFU, TP53 / Fold change vs veh, TP53 / RFU, TNKS2 / Fold change vs veh, TNKS2 / RFU, ZFP14 / Fold change vs veh, ZFP14 / RFU, ACTR2 / Fold change vs veh, ACTR2 / RFU, PPP3R1 / Fold change vs veh, PPP3R1 / RFU, PIK3R1 / Fold change vs veh, PIK3R1 / RFU, HNRNPA1 / Fold change vs veh, HNRNPA1 / RFU, RNF170 / Fold change vs veh, RNF170 / RFU, ZNF28 / Fold change vs veh, ZNF28 / RFU, RNGTT / Fold change vs veh, RNGTT / RFU, OGT / Fold change vs veh, OGT / RFU, BRD1 / Fold change vs veh, BRD1 / RFU, MARS / Fold change vs veh, MARS / RFU, ZNF655 / Fold change vs veh, ZNF655 / RFU, FAHD1 / Fold change vs veh, FAHD1 / RFU, BDP1 / Fold change vs veh, BDP1 / RFU, LRRCC1 / Fold change vs veh, LRRCC1 / RFU, ARID1A / Fold change vs veh, ARID1A / RFU, ZNF146 / Fold change vs veh, ZNF146 / RFU, ZNF330 / Fold change vs veh, ZNF330 / RFU, GPN3 / Fold change vs veh, GPN3 / RFU, C9orf123 / Fold change vs veh, C9orf123 / RFU, N4BP2L2 / Fold change vs veh, N4BP2L2 / RFU, ARFIP1 / Fold change vs veh, ARFIP1 / RFU, FAM179B / Fold change vs veh, FAM179B / RFU, BCL10 / Fold change vs veh, BCL10 / RFU, UHRF1BP1L / Fold change vs veh, UHRF1BP1L / RFU, BET1 / Fold change vs veh, BET1 / RFU, CNOT2 / Fold change vs veh, CNOT2 / RFU, ZNF268 / Fold change vs veh, ZNF268 / Fold change vs veh, ZNF507 / RFU, DGCR2 / Fold change vs veh, DGCR2 / RFU, WDSUB1 / Fold change vs veh, WDSUB1 / Fold change vs veh, HSP90B1 /// MIR3652 / RFU, ADSS / Fold change vs veh, ADSS / RFU, GK / Fold change vs veh, GK / RFU, ZNF148 / Fold change vs veh, ZNF148 / RFU, TAF9 / Fold change vs veh, TAF9 / RFU, SLC1A5 / Fold change vs veh, SLC1A5 / RFU, SLMO2 / Fold change vs veh, SLMO2 / RFU, ABCC4 / Fold change vs veh, ABCC4 / RFU, LOC101060439 /// RAP1B / Fold change vs veh, LOC101060439 /// RAP1B / RFU, RFX7 / Fold change vs veh, RFX7 / RFU, GTPBP10 / Fold change vs veh, GTPBP10 / RFU, CNEP1R1 / Fold change vs veh, CNEP1R1 / RFU, BIVM-ERCC5 /// ERCC5 / Fold change vs veh, BIVM-ERCC5 /// ERCC5 / RFU, ILF3 / Fold change vs veh, ILF3 / RFU 11762660_at / Fold change /veh 11762660_at / RFU VCAN (11757783_s_at) / Fold change /veh VCAN (11757783_s_at) / RFU DDX43 (11728927_at) / Fold change /veh DDX43 (11728927_at) / RFU KRT8 (11758188_x_at) / Fold change /veh KRT8 (11758188_x_at) / RFU NKD1 (11759106_at) / Fold change /veh NKD1 (11759106_at) / RFU SRD5A1 (11742802_a_at) / Fold change /veh SRD5A1 (11742802_a_at) / RFU TPSAB1 /// TPSB2 (11721975_s_at) / Fold change /veh TPSAB1 /// TPSB2 (11721975_s_at) / RFU GSTM3 (11746129_a_at) / Fold change /veh GSTM3 (11746129_a_at) / RFU IL23R (11737362_x_at) / Fold change /veh IL23R (11737362_x_at) / RFU TMEM51 (11727254_a_at) / Fold change /veh TMEM51 (11727254_a_at) / RFU PIWIL2 (11732686_x_at) / Fold change /veh PIWIL2 (11732686_x_at) / RFU ORM1 (11744905_x_at) / Fold change /veh ORM1 (11744905_x_at) / RFU CCDC152 (11743942_at) / Fold change /veh CCDC152 (11743942_at) / RFU ECM1 (11717891_a_at) / Fold change /veh ECM1 (11717891_a_at) / RFU IL23R (11748794_a_at) / Fold change /veh IL23R (11748794_a_at) / RFU TNFAIP8L3 (11732012_x_at) / Fold change /veh TNFAIP8L3 (11732012_x_at) / RFU MBOAT4 (11741988_at) / Fold change /veh MBOAT4 (11741988_at) / RFU 11764193_at / Fold change /veh 11764193_at / RFU TMEM53 (11763286_at) / Fold change /veh TMEM53 (11763286_at) / RFU MAGEB2 (11727129_at) / Fold change /veh MAGEB2 (11727129_at) / RFU TMEM200A (11744735_a_at) / Fold change /veh TMEM200A (11744735_a_at) / RFU CCDC152 (11751479_a_at) / Fold change /veh CCDC152 (11751479_a_at) / RFU FAM211A (11726209_a_at) / Fold change /veh FAM211A (11726209_a_at) / RFU RGS16 (11746705_a_at) / Fold change /veh RGS16 (11746705_a_at) / RFU VCAN (11755009_s_at) / Fold change /veh VCAN (11755009_s_at) / RFU RHOB (11743442_s_at) / Fold change /veh RHOB (11743442_s_at) / RFU RGS16 (11720943_a_at) / Fold change /veh RGS16 (11720943_a_at) / RFU RGS16 (11720944_at) / Fold change /veh RGS16 (11720944_at) / RFU, VPS4B / Fold change vs veh, VPS4B / RFU, CREB1 / Fold change vs veh, CREB1 / RFU, DNAJC13 / Fold change vs veh, DNAJC13 / RFU, GNAQ / Fold change vs veh, GNAQ / RFU, CDK5R1 / Fold change vs veh, CDK5R1 / RFU, ZRANB3 / Fold change vs veh, ZRANB3 / RFU, CUL4A / Fold change vs veh, CUL4A / RFU, CCNY / Fold change vs veh, CCNY / RFU, UFL1 / Fold change vs veh, UFL1 / RFU, COG3 / Fold change vs veh, COG3 / RFU, DIAPH2 / Fold change vs veh, DIAPH2 / RFU, SKA2 / Fold change vs veh, SKA2 / RFU, AFF3 / Fold change vs veh, AFF3 / RFU, LMF1 / Fold change vs veh, LMF1 / RFU, IPO11 / Fold change vs veh, IPO11 / RFU, DFFB / Fold change vs veh, DFFB / RFU, FOXP1 / Fold change vs veh, FOXP1 / RFU, CARD8 / Fold change vs veh, CARD8 / RFU, STRN3 / Fold change vs veh, STRN3 / RFU, ADK / Fold change vs veh, ADK / RFU, RASSF2 / Fold change vs veh, RASSF2 / RFU, WIPF1 / Fold change vs veh, WIPF1 / RFU, LARP1B / Fold change vs veh, LARP1B / RFU, RASA1 / Fold change vs veh, RASA1 / RFU, RB1 / Fold change vs veh, RB1 / RFU, PPFIA1 / Fold change vs veh, PPFIA1 / RFU, MAT2A / Fold change vs veh, MAT2A / RFU, CCT5 / Fold change vs veh, CCT5 / RFU, WDR92 / Fold change vs veh, WDR92 / RFU, CUX1 / Fold change vs veh, CUX1 / RFU, TTC7A / Fold change vs veh, TTC7A / RFU, TMEM135 / Fold change vs veh, TMEM135 / RFU, DEPTOR / Fold change vs veh, DEPTOR / RFU, CPM / Fold change vs veh, CPM / RFU, DNAJB6 / Fold change vs veh, DNAJB6 / RFU, CACNA2D3 / Fold change vs veh, CACNA2D3 / RFU, DTX4 / Fold change vs veh, DTX4 / RFU, TFCP2 / Fold change vs veh, TFCP2 / RFU, GMCL1 /// GMCL1P1 / Fold change vs veh, GMCL1 /// GMCL1P1 / RFU, AEBP2 / Fold change vs veh, AEBP2 / RFU, SNHG1 /// SNORD22 /// SNORD25 /// SNORD26 /// SNORD27 /// SNORD28 /// SNORD29 /// SNORD31 / Fold change vs veh, SNHG1 /// SNORD22 /// SNORD25 /// SNORD26 /// SNORD27 /// SNORD28 /// SNORD29 /// SNORD31 / Fold change (Aza/veh), C12orf56 (ProbeSet 11735607_a_at) / Fold change (ACY-1035/veh), C12orf56 (ProbeSet 11735607_a_at) / Fold change (Aza/veh), FGFR1OP (ProbeSet 11751329_s_at) / Fold change (ACY-1035/veh), FGFR1OP (ProbeSet 11751329_s_at) / Fold change (Aza/veh), VPS36 (ProbeSet 11739960_a_at) / Fold change (ACY-1035/veh), VPS36 (ProbeSet 11739960_a_at) / RFU SYPL1 (11715823_x_at) / Fold change /veh SYPL1 (11715823_x_at) / RFU IGFBP7 (11715501_s_at) / Fold change /veh IGFBP7 (11715501_s_at) / RFU REEP3 (11722064_at) / Fold change /veh REEP3 (11722064_at) / RFU IGLL1 (11728026_x_at) / Fold change /veh IGLL1 (11728026_x_at): dose or concentration left out as unconfirmed
Details: ProbeSet 11723475_a_at; LIST B

## Nc1ncn([C@@H]2O[C@H](CO)[C@@H](O)[C@H]2O)c(=O)n1 [azacitidine]
  RFU, TRMT61B: 139.59 RFU
